Results: US20120172344A1, “INSULIN-PRODUCING CELL INDUCER, GLUCOSE INTAKE ENHANCER, AND THERAPEUTIC AGENT FOR DIABETES OR DIABETES COMPLICATIONS” (KYUSHU UNIVERSITY, NATIONAL UNIVERSITY CORPORATION, priority 2009, published 2012)

Experiments:
Tg23 mice = assay: Experimental Example 4: blood glucose, blood parameters, food consumption and oral glucose tolerance test; type: in vivo, mouse; conditions: for blood glucose level: Tg23 mice 11 weeks of age
Experimental: (§1) Blood glucose levels were measured by an enzyme-electrode method with ONE TOUCH UltraVue (Johnson & Johnson K.K.) on whole blood taken from tail veins of subject animals.
Immediately before collecting organs, blood parameters were measured using various methods and measurement kits described below in blood collected from the hearts of animals anesthetized with nembutal.
(c) Blood urea nitrogen (BUN): Urease UV method,
(d) Aspartate aminotransferase (AST) and alanine aminotransferase (ALT): JSCC standardization method,
(e) Serum insulin concentration: Enzyme-linked immunosorbent assay kit (Morinaga Institute of Biological Science),
(f) Serum glucagon concentration: YK142 Mouse […] EIA kit (Yanaihara Institute Inc.),
(g) Total serum cholesterol level: Enzymatic assay reagent (Wako Pure Chemical Industries),
After a 16-hour fast, mice were administered with glucose (1 g/kg of body weight) by gavage. Blood samples were collected from the tail vein at 0, 15, 30, 60, 90, and 120 minutes after the oral administration, and blood glucose levels were measured. In addition, blood samples were collected from the tail vein in a similar manner at 0, 15, and 30 minutes after the oral administration, and serum insulin concentrations were measured.
Subject mice were individually housed in metabolic cages for four days to assess food consumption (g/24 h) and water consumption (ml/24 h). During measurement, food and water were supplied to the mice ad libitum. Measurements were repeated three times for each group.
Tg23 mice (11 weeks of age) were divided into four groups (each group: n=4 to 10): an estradiol administration group (E only group), a testectomy group (Tx only group), a testectomy-and-estradiol administration group (Tx+E group), and a control group (Tg group). For E only group, sham surgery of testectomy (Tx) was performed, and a single pellet of 17β-estradiol (E) was subcutaneously administered at the nape of the neck. […] For Tx+E group, testectomy was performed, and a single pellet of 17β-estradiol was subcutaneously administered at the nape of the neck.
Then, blood glucose levels (mg/dl) were measured every week for E only group, Tx only group, Tx+E group, and Tg group, and wild-type mice (WT). In addition, measurements were performed with Tx+E group, Tg group, and wild-type mice (WT), for serum insulin concentrations (pg/mL), serum glucagon concentrations (pg/mL), blood urea nitrogen (BUN) concentrations (mg/dL), total serum cholesterol levels ([…]), aspartate aminotransferase (AST)/alanine aminotransferase (ALT), and food consumption per day (g/day). Furthermore, oral glucose tolerance test was performed, and changes in blood glucose level and serum insulin concentration over time were measured.

[1] = tested on: Tg23 mice (ICERIγ transgenic diabetes model mice); assay: Experimental Example 1: effect of estradiol administration on blood glucose and insulin-producing cells in diabetes model mice; type: in vivo, mouse
Experimental: as §1
Pancreases were fixed in 10% formalin, embedded in paraffin, and sliced into sections having a thickness of 2 μm. The sections were immunostained with overnight incubation at 4° C. in dilution solutions containing various primary antibodies described below.
Primary antibodies: Anti-insulin antibody (dilution rate 1:500; DAKO), anti-glucagon antibody (dilution rate 1:500; Linco Research Inc.), anti-DBA antibody (dilution rate 1:300; Vector Laboratories), anti-Pdx-1 antibody (dilution rate 1:1000; kindly provided by Chris V. E. Wright, Vanderbilt University), anti-collagen type IV antibody (dilution rate 1:250; PROGEN Biotechnik), and anti-Glut 4 antibody (dilution rate 1:1000; Chemicon).
The primary antibodies were detected by immunofluorescence labeling using secondary antibodies conjugated with Alexa 488 or Alexa 568 (1:200; Molecular Probes); third antibody conjugated with biotin-labeled secondary antibodies and streptavidin Alexa 488 or Alexa 568 (1:800; Vector Laboratories); or by an immunoperoxidase staining method using biotin-labeled secondary antibodies. Staining was visualized with diaminobenzidine. The sections were counterstained with hematoxylin. Images were captured on a BZ9000 microscope (Keyence), or in the confocal mode on an LSM 510 META confocal microscope (Carl Zeiss). Immunofluorescence intensity was measured in random fields (n=30/section) using LSM Zeiss software, and the result was expressed as average pixel intensity.
ICERIγ transgenic mice (male) were generated from a pure line C57BL/6J (Japan SLC, Inc.) in accordance with the method described in Example 1 of Patent Literature 1 (WO2004/072282). […]
Tg23 mice (11 weeks of age) were divided into two groups: an estradiol administration group (n=24), and a control group (n=57). […] Then, body weight and blood glucose levels of the Tg mice and wild-type mice (WT) (n=81) were monitored every week, and the mice were dissected after 43 weeks. […]

[2] = Tx+E mice, glucose 1 g/kg by gavage after 16-hour fast

## C[C@]12CC[C@@H]3c4ccc(O)cc4CC[C@H]3[C@@H]1CC[C@@H]2O [estradiol, 17β-estradiol]
Tg23 mice; E only group (sham surgery + 17β-estradiol pellet s.c.)
  blood glucose level: effective for reducing blood glucose level
Tg23 mice; Tx+E group (testectomy + 17β-estradiol pellet s.c.)
  blood glucose level: effective for reducing blood glucose level
Tg23 mice; Tx+E mice
  AST/ALT: returned to normal
  blood urea nitrogen (BUN): returned to normal
  food consumption per day: returned to normal
  serum glucagon: returned to normal
  serum insulin level: largely increased
  total serum cholesterol: returned to normal
Tg23 mice; [2]
  blood glucose level in oral glucose tolerance test: returned to basal level after a time point of 180 minutes
  insulin secretion in oral glucose tolerance test: increased
[1]; Tg23 mice 11 weeks of age, testectomy (Tx) + single 17β-estradiol pellet s.c. (0.72 mg/pellet, 90-day release), vs wild-type mice
  blood glucose levels: lowered to the same levels of normal mice
[1]; Tx+E group, Tg23 mice
  persistence of lowered blood glucose levels: maintained until death
[1]; Tx+E group, anti-insulin immunostaining, 1 week after estradiol administration
  insulin-producing cells in pancreatic duct epithelium cells of the pancreas: induced
